This note sets out measurements from ChEMBL document CHEMBL1134130, “Carbonic anhydrase inhibitors: 4-sulfamoyl-benzenecarboxamides and 4-chloro-3-sulfamoyl-benzenecarboxamides with strong topical antiglaucoma properties” (Bioorg Med Chem Lett, 2001).

The target of one series is Carbonic anhydrase 2 (Homo sapiens, UniProt P00918).
The target of series [1] is T1, Carbonic anhydrase 4 (Bos taurus, UniProt Q95323).
T1 sequence (Q95323 whole entry): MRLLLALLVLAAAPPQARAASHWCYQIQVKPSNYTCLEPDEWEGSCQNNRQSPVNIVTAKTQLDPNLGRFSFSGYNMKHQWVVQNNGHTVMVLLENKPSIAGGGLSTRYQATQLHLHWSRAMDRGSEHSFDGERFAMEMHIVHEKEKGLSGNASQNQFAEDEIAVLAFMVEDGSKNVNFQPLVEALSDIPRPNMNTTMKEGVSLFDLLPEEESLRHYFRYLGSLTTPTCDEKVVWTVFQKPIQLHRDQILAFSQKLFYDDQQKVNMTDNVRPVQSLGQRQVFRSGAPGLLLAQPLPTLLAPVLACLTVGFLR
Description: Compound was evaluated for binding affinity against bovine carbonic anhydrase IV (bCA IV)

For a further series, the target named is Carbonic anhydrase 1 (Homo sapiens, UniProt P00915).
Chain of Carbonic anhydrase 1 (P00915 whole entry): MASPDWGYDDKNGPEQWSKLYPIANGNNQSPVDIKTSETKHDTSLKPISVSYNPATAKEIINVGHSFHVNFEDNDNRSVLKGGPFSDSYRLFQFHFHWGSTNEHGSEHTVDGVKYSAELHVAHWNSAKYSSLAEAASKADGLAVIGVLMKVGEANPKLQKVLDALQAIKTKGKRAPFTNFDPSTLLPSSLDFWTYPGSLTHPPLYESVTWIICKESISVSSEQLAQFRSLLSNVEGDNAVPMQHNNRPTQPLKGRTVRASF
Series [2] in a line: Compound was evaluated for in vitro corneal permeability in cornea intact. The series is classed as ADME, tissue-based.
A short description of series [3]: Compound was evaluated for in vitro corneal permeability in no epithelium. The series is classed as ADME, tissue-based, Cornea.
The species entered for series [4] is Oryctolagus cuniculus.
Description: Fall of in vivo intraocular pressure (IOP) of glaucomatous rabbits at 0 min after treatment with one drop (50 uL) solution of 2% of CA inhibitor directly into eye
Series [5] is filed under the species Oryctolagus cuniculus. This is another data set of the same source.
Description: Fall of in vivo intraocular pressure (IOP) of glaucomatous rabbits at 120 min after treatment with one drop (50 uL) solution of 2% of CA inhibitor directly into eye
The species named for series [6] is Oryctolagus cuniculus. This is another data set of the same source.
The species entered for series [7] is Oryctolagus cuniculus. This is another data set of the same source.
Description: In vivo intraocular pressure (IOP) lowering at 90 min in normotensive rabbits after treatment with one drop (50 uL) 2% solution of CA inhibitor directly into the eye, at 7.0 pH
Series [8] is filed under the species Oryctolagus cuniculus. This is another data set of the same source.
Description: Fall of in vivo intraocular pressure (IOP) of glaucomatous rabbits at 30 min after treatment with one drop (50 uL) solution of 2% of CA inhibitor directly into eye
The species named for series [9] is Oryctolagus cuniculus. The source holds these as a separate data set.
Description: Fall of in vivo intraocular pressure (IOP) of glaucomatous rabbits at 60 min after treatment with one drop (50 uL) solution of 2% of CA inhibitor directly into eye
For series [10], the species on record is Oryctolagus cuniculus. The source holds these as a separate data set.
Description: Fall of in vivo intraocular pressure (IOP) of glaucomatous rabbits at 90 min after treatment with one drop (50 uL) solution of 2% of CA inhibitor directly into eye
Series [11] is filed under the species Oryctolagus cuniculus. The source holds these as a separate data set.
Description: In vivo intraocular pressure (IOP) lowering at 120 min in normotensive rabbits after treatment with one drop (50 uL) 2% solution of CA inhibitor directly into the eye, at 7.0 pH
Series [12] is filed under the species Oryctolagus cuniculus. This is another data set of the same source.
Description: In vivo intraocular pressure (IOP) lowering at 30 min in normotensive rabbits after treatment with one drop (50 uL) 2% solution of CA inhibitor directly into the eye, at 7.0 pH
Another series in a line: physchem. The following applies: octanol/water.
Series [13] has as its system Oryctolagus cuniculus. The series is described as follows: In vivo intraocular pressure (IOP) lowering at 60 min in normotensive rabbits after treatment with one drop (50 uL) 2% solution of CA inhibitor directly into the eye, at 7.0 pH. The series is classed as functional.
For series [14], the system named is Oryctolagus cuniculus. The series is described as follows: In vivo intraocular pressure (IOP) lowering at 0 min in normotensive rabbits after treatment with one drop (50 uL) 2% solution of CA inhibitor directly into the eye, at 7.5 pH. Format: functional.
For series [15], the system named is Oryctolagus cuniculus. Briefly: In vivo intraocular pressure (IOP) lowering at 60 min in normotensive rabbits after treatment with one drop (50 uL) 2% solution of CA inhibitor directly into the eye, at 7.5 pH. Format: functional.
Series [16] deals with Oryctolagus cuniculus. Briefly: In vivo intraocular pressure (IOP) lowering at 90 min in normotensive rabbits after treatment with one drop (50 uL) 2% solution of CA inhibitor directly into the eye, at 7.5 pH. The series is classed as functional.
Series [17] relates to Oryctolagus cuniculus. Briefly: In vivo intraocular pressure (IOP) lowering at 120 min in normotensive rabbits after treatment with one drop (50 uL) 2% solution of CA inhibitor directly into the eye, at 7.5 pH. Format: functional.
For series [18], the system named is Oryctolagus cuniculus. The series is described as follows: In vivo intraocular pressure (IOP) lowering at 30 min in normotensive rabbits after treatment with one drop (50 uL) 2% solution of CA inhibitor directly into the eye, at 7.5 pH. Format: functional.
In series [19] the test system is Oryctolagus cuniculus. The series is described as follows: In vivo intraocular pressure (IOP) lowering at 0 min in normotensive rabbits after treatment with one drop (50 uL) 2% solution of CA inhibitor directly into the eye, at 7.0 pH. The series is classed as functional.
Series [20] addresses T1, Carbonic anhydrase 4. This is another data set of the same source.
Description: Compound was evaluated for binding affinity against bovine Carbonic anhydrase IV

Molecules are shown by their SMILES.

Description for Carbonic anhydrase 1: Binding affinity against human carbonic anhydrase I (hCA I)
Description for Carbonic anhydrase 2: Binding affinity against human carbonic anhydrase II (hCA -II)
Description for physchem: Partition coefficient (logP)

As usually defined, the Ki is a measure of affinity in units of concentration, obtained from inhibition or displacement. Lower therefore signals a stronger hold on the target. Take `NS(=O)(=O)c1cc(C(=O)N[C@@H](Cc2c[nH]cn2)C(=O)O)ccc1Cl`: the Ki on Carbonic anhydrase 2 came to 210 nM; on Carbonic anhydrase 4 [1], 350 nM; on Carbonic anhydrase 1, 103 nM.

A word on the logP: it is a log measure of how a compound divides between an organic and an aqueous phase. Read a high logP as higher lipophilicity. Consider `NS(=O)(=O)c1ccc(C(=O)N[C@@H](Cc2c[nH]cn2)C(=O)N[C@@H](Cc2ccccc2)C(=O)O)cc1`, for which the “Km x10e3” value is listed as 2.9 hr-1 in series [2] and 5.8 hr-1 in [3]. In addition, the inhibition constant Ki was determined as 9 nM on Carbonic anhydrase 2, 23 nM on Carbonic anhydrase 4 [1] and 240 nM on Carbonic anhydrase 1. For the same compound, the “Delta IOP” value is given as 0 mmHg in the series filed under Oryctolagus cuniculus [4]; 10 mmHg in the series listed under Oryctolagus cuniculus [5]; 6.5 mmHg in the series listed under Oryctolagus cuniculus [6]; 9.1 mmHg in the series listed under Oryctolagus cuniculus [7]; 7.1 mmHg in the series filed under Oryctolagus cuniculus [8]; 12 mmHg in the series listed under Oryctolagus cuniculus [9]. For the same compound, the “Delta IOP” value in the series filed under Oryctolagus cuniculus [10] came to 11 mmHg; in the series listed under Oryctolagus cuniculus [11], 9.5 mmHg; in the series filed under Oryctolagus cuniculus [12], 4.2 mmHg. The same compound yielded a logP in “physchem” of 1.74.

Consider `C[C@@H](O)[C@H](NC(=O)c1ccc(S(N)(=O)=O)cc1)C(=O)O`, for which the Ki worked out at 115 nM on Carbonic anhydrase 2, 350 nM at Carbonic anhydrase 4 [1] and 475 nM at Carbonic anhydrase 1.

`NS(=O)(=O)c1ccc(C(=O)Nc2nnc(S)s2)cc1`: the “Delta IOP” value in the series with Oryctolagus cuniculus [13] came to 5 mmHg; with Oryctolagus cuniculus [14], 0 mmHg; in the series listed under Oryctolagus cuniculus [7] it was 3.1 mmHg; in the series listed under Oryctolagus cuniculus [11] it was 2.1 mmHg; in the series listed under Oryctolagus cuniculus [12], 7 mmHg. Moreover, the inhibitory constant (Ki) at Carbonic anhydrase 2 turned out to be 5 nM; on Carbonic anhydrase 4 [1] it was 14 nM; on Carbonic anhydrase 1 it was 38 nM.

With `NS(=O)(=O)c1nnc(NC(=O)c2ccc(Cl)c(S(N)(=O)=O)c2)s1`, the “Km x10e3” value in series [2] was 3.1 hr-1; in series [3], 7 hr-1. Moreover, the “Delta IOP” value in the series with Oryctolagus cuniculus [15] was determined as 7.1 mmHg; with Oryctolagus cuniculus [16], 8.3 mmHg; with Oryctolagus cuniculus [14], 0 mmHg; with Oryctolagus cuniculus [17], 7.5 mmHg; in the series with Oryctolagus cuniculus [18], 2.5 mmHg; in the series filed under Oryctolagus cuniculus [4] it was 0 mmHg. Further, the “Delta IOP” value in the series listed under Oryctolagus cuniculus [5] stood at 13.3 mmHg; in the series listed under Oryctolagus cuniculus [8], 6.4 mmHg; in the series filed under Oryctolagus cuniculus [9], 13 mmHg; in the series filed under Oryctolagus cuniculus [10] it was 14.2 mmHg. Also, the inhibition constant (Ki) on Carbonic anhydrase 2 is 10 nM; at Carbonic anhydrase 4 [1] it was 22 nM; on Carbonic anhydrase 1, 13 nM. Further, the logP in “physchem” worked out at 1.89.

For `CC(C)C[C@H](NC(=O)c1ccc(S(N)(=O)=O)cc1)C(=O)NCC(=O)O`, the “Km x10e3” value in series [2] was found to be 3.3 hr-1; in series [3], 6.4 hr-1. Further, the “Delta IOP” value in the series with Oryctolagus cuniculus [19] came out at 0 mmHg; in the series filed under Oryctolagus cuniculus [6] it was 5.2 mmHg; in the series filed under Oryctolagus cuniculus [7] it was 7.8 mmHg; in the series listed under Oryctolagus cuniculus [11], 8.7 mmHg; in the series filed under Oryctolagus cuniculus [12] it was 3.3 mmHg. The Ki was determined as 9 nM at Carbonic anhydrase 2, 16 nM at Carbonic anhydrase 4 [1] and 400 nM at Carbonic anhydrase 1. In “physchem”, this compound yielded a logP of 1.82.

As to `NS(=O)(=O)c1ccc(C(=O)NCC(=O)O)cc1`, the Ki is 85 nM at Carbonic anhydrase 2, 200 nM at Carbonic anhydrase 4 [20] and 500 nM at Carbonic anhydrase 1.

For `NS(=O)(=O)c1ccc(C(=O)NCCC(=O)O)cc1`, the Ki on Carbonic anhydrase 2 came to 85 nM; at Carbonic anhydrase 4 [20], 190 nM; on Carbonic anhydrase 1 it was 435 nM.

With `NS(=O)(=O)c1ccc(CCNC(=O)c2ccc(S(N)(=O)=O)cc2)cc1`, the entries for the “Km x10e3” value in series [2] and in [3] were 2.5 hr-1 and 6.3 hr-1, respectively. On Carbonic anhydrase 4 [1], this compound yielded an inhibitory constant (Ki) of 13 nM. The lipophilicity (logP) in the series “physchem” stood at 1.43.

`NS(=O)(=O)c1cc(C(=O)N[C@@H](Cc2ccc(O)cc2)C(=O)O)ccc1Cl`: the inhibition constant (Ki) at Carbonic anhydrase 2 stood at 250 nM; at Carbonic anhydrase 4 [1] it was 325 nM; on Carbonic anhydrase 1, 115 nM.

Take `CCC(C)[C@H](NC(=O)c1ccc(S(N)(=O)=O)cc1)C(=O)O` (single isomer, unassigned): the Ki on Carbonic anhydrase 2 is 48 nM; at Carbonic anhydrase 4 [1] it was 86 nM; at Carbonic anhydrase 1 it was 350 nM.
